Test results taken from PubChem BioAssay (NCI).
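A five-concentration, 48-hour dose response in 96-well plates underlies each endpoint, interpolated linearly between surrounding concentrations. The concentration for 50% growth inhibition is given as GI50. TGI: total growth inhibition.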

Key:
Test in all cases: inhibition of tumour cell growth, NCI panel, 48 h
BT-549 breast = system: BT-549 breast
HL-60(TB) leukemia = system: HL-60(TB) leukemia
RPMI-8226 leukemia = system: RPMI-8226 leukemia
M14 melanoma = system: M14 melanoma
MALME-3M melanoma = system: MALME-3M melanoma
HOP-92 NSCLC = system: HOP-92 NSCLC
UACC-62 melanoma = system: UACC-62 melanoma
NCI-H226 lung = system: NCI-H226 lung
MDA-MB-435 = system: MDA-MB-435
TK-10 renal = system: TK-10 renal

Compound | TGI (BT-549 breast) | TGI (HL-60(TB) leukemia) | TGI (RPMI-8226 leukemia) | TGI (M14 melanoma) | TGI (MALME-3M melanoma) | TGI (HOP-92 NSCLC) | TGI (UACC-62 melanoma) | TGI (NCI-H226 lung) | TGI (MDA-MB-435) | TGI (TK-10 renal) | GI50 (BT-549 breast) | GI50 (HL-60(TB) leukemia) | GI50 (RPMI-8226 leukemia) | GI50 (M14 melanoma) | GI50 (MALME-3M melanoma) | GI50 (HOP-92 NSCLC) | GI50 (UACC-62 melanoma) | GI50 (NCI-H226 lung) | GI50 (MDA-MB-435) | GI50 (TK-10 renal)
CC/C(Cl)=N\OC(=O)Nc1ccc(F)cc1F | 6.93 µM | 4.31 µM | 3.57 µM | 22.3 µM | 12 µM | 4.34 µM | 32.3 µM | 34.2 µM | 34.2 µM | 24.3 µM | – | – | – | – | – | – | – | – | – | –
COc1ccc(C(=O)c2ccc(-n3cc(/C=C/[N+](=O)[O-])c4ccccc43)cc2)cc1 | 33.7 µM | 44.6 µM | > 100 µM | > 74.5 µM | 46.8 µM | 34.9 µM | 28.5 µM | > 92.9 µM | 49.3 µM | 16.8 µM | – | – | – | – | – | – | – | – | – | –
COc1cc2cc(C(=O)N3CC(CCl)c4c3cc([N+](C)(C)Cc3ccc([N+](=O)[O-])n3C)c3ccccc43)[nH]c2c(OC)c1OC (stereo unspecified) | 11.5 µM | 8.16 µM | 8.31 µM | > 48 µM | 25.6 µM | 6.26 µM | 3.14 µM | – | 60.7 µM | 14.3 µM | – | – | – | – | – | – | – | – | – | –
COC(=O)c1ccc(/C=C2\CCc3ccccc3C2=O)cc1 | > 100 µM | > 100 µM | > 100 µM | > 100 µM | > 100 µM | > 100 µM | > 100 µM | > 100 µM | > 100 µM | > 100 µM | – | – | – | – | – | – | – | – | – | –
O=S(=O)(O)C1CCC(O)C2[N-]CCCC21.O=S(=O)(O)C1CCC(O)C2[N-]CCCC21.[Zn+2] (stereo unspecified) | > 100 µM | 51 µM | > 100 µM | > 100 µM | > 100 µM | > 100 µM | > 100 µM | > 100 µM | > 100 µM | > 100 µM | – | – | – | – | – | – | – | – | – | –
O=S1(=O)CCN(c2ccccc2CC(c2c[nH]c3ccccc23)c2c[nH]c3ccccc23)CC1 | 37.3 µM | 12.7 µM | 5.01 µM | 20.5 µM | 43.7 µM | 25.3 µM | 18.9 µM | 42.7 µM | > 31.7 µM | 19.8 µM | – | – | – | – | – | – | – | – | – | –
COc1cc(-n2cc(-c3cc(O)c(C/C=C(\C)CCC=C(C)C)c(O)c3)nn2)cc2c1O[C@]1(C)CC[C@@H](O)C(C)(C)[C@H]1C2 | 20.5 µM | 3.88 µM | 0.475 µM | 31 µM | 8.4 µM | 17.3 µM | 2.98 µM | 68.4 µM | 27.6 µM | > 100 µM | 0.974 µM | 0.0655 µM | 0.0324 µM | 0.787 µM | 1.38 µM | 1.03 µM | 0.23 µM | 5.98 µM | 1.22 µM | 7.97 µM
CCCCCCCCCCCCCCCCOCC(Cl)COP(=O)(O)OP(=O)(O)OCC1OC(n2cnc3c(N)ncnc32)C(O)C1O (stereo unspecified) | > 100 µM | > 100 µM | > 100 µM | > 100 µM | > 100 µM | > 100 µM | > 100 µM | > 100 µM | > 100 µM | > 100 µM | – | – | – | – | – | – | – | – | – | –
CC(C)(C)OC(=O)N1CCc2c(n(C/C=C/c3ccccc3)[nH]c2=O)C1 | > 100 µM | > 100 µM | > 100 µM | > 100 µM | > 100 µM | > 100 µM | > 100 µM | > 100 µM | > 100 µM | > 100 µM | – | – | – | – | – | – | – | – | – | –
CCCCCCOP(=O)(OCCCCCC)OC(C(=O)OC)C(F)(F)F (stereo unspecified) | > 100 µM | > 100 µM | > 100 µM | > 100 µM | > 100 µM | > 100 µM | > 100 µM | > 100 µM | > 100 µM | > 100 µM | – | – | – | – | – | – | – | – | – | –
Cc1ccc(/C=C2\CN(C)CC3C2=NC(=S)NC3c2ccc(C)cc2)cc1 (stereo unspecified) | > 100 µM | > 100 µM | > 100 µM | > 100 µM | > 100 µM | > 31.1 µM | > 100 µM | > 100 µM | 45.1 µM | > 100 µM | – | – | – | – | – | – | – | – | – | –
COc1ccc(-c2nc(-c3cnccn3)n(C3OC(CO)C(O)C(O)C3O)n2)cc1 (stereo unspecified) | > 100 µM | > 100 µM | > 100 µM | > 100 µM | – | > 100 µM | > 100 µM | – | > 100 µM | > 100 µM | – | – | – | – | – | – | – | – | – | –
CO[P@]1(=O)O[C@@H](c2ccccc2)[C@H](O)[C@@]1(O)c1ccccc1 | > 100 µM | > 100 µM | – | > 100 µM | > 100 µM | > 100 µM | > 100 µM | > 100 µM | > 100 µM | > 100 µM | – | – | – | – | – | – | – | – | – | –
O=P(O)(O)CN1CCNCCN(CP(=O)(O)O)CCNCC1 | > 100 µM | 15.2 µM | > 100 µM | > 100 µM | > 100 µM | 9.76 µM | > 100 µM | > 94.9 µM | > 100 µM | > 100 µM | – | – | – | – | – | – | – | – | – | –
